# Measured values taken from PubChem BioAssay AID2060899 (Molecular Pharmacology Branch, DTP, NCI, 2025).
# Test system: 565726-208-R1-J5-PDC complex spheroids, growth inhibition
# Experiment: Anticancer human tumor 565726-208-R1-J5-PDC patient-derived pancreatic adenocarcinoma cell line growth inhibition [RAS]
# Settings: for IC50: curve of first compound; for viability, T/C: stronger effect = lower value
# Procedure, shortened: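 Tumour cells grown as complex spheroids with HUVEC endothelial cells and mesenchymal stem cells, treated with RAS pathway inhibitor combinations. Each agent spans half-log steps from near clinical Cmax, or 10 microM where Cmax is unknown.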
# [1] = second compound 0.000949 µM, first compound 0.0316 µM
# [2] = second compound 0.000949 µM, first compound 0.1 µM
# [3] = second compound 0.000949 µM, first compound 0.316 µM
# [4] = second compound 0.000949 µM, first compound 1 µM
# [5] = second compound 0.000949 µM, first compound 3.16 µM
# [6] = second compound 0.000949 µM, first compound 10 µM
# [7] = second compound 0.003 µM, first compound 0.0316 µM
# [8] = second compound 0.003 µM, first compound 0.1 µM
# [9] = second compound 0.003 µM, first compound 0.316 µM
# [10] = second compound 0.003 µM, first compound 1 µM
# [11] = second compound 0.003 µM, first compound 3.16 µM
# [12] = second compound 0.003 µM, first compound 10 µM
# [13] = second compound 0.00949 µM, first compound 0.0316 µM
# [14] = second compound 0.00949 µM, first compound 0.1 µM
# [15] = second compound 0.00949 µM, first compound 0.316 µM
# [16] = second compound 0.00949 µM, first compound 1 µM
# [17] = second compound 0.00949 µM, first compound 3.16 µM
# [18] = second compound 0.00949 µM, first compound 10 µM
# [19] = second compound 0.03 µM, first compound 0.0316 µM
# [20] = second compound 0.03 µM, first compound 0.1 µM
# [21] = second compound 0.03 µM, first compound 0.316 µM
# [22] = second compound 0.03 µM, first compound 1 µM
# [23] = second compound 0.03 µM, first compound 3.16 µM
# [24] = second compound 0.03 µM, first compound 10 µM
# [25] = second compound 0.0949 µM, first compound 0.0316 µM
# [26] = second compound 0.0949 µM, first compound 0.1 µM
# [27] = second compound 0.0949 µM, first compound 0.316 µM
# [28] = second compound 0.0949 µM, first compound 1 µM
# [29] = second compound 0.0949 µM, first compound 3.16 µM
# [30] = second compound 0.0949 µM, first compound 10 µM
# [31] = second compound 0.3 µM, first compound 0.0316 µM
# [32] = second compound 0.3 µM, first compound 0.1 µM
# [33] = second compound 0.3 µM, first compound 0.316 µM
# [34] = second compound 0.3 µM, first compound 1 µM
# [35] = second compound 0.3 µM, first compound 3.16 µM
# [36] = second compound 0.3 µM, first compound 10 µM
# 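Note: spheroids exposed to compounds for seven days before readout.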
# 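Throughout, for viability, T/C: 100% = DMSO vehicle control viability.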
smiles,measurement,setting,value
CC1(O)CCCC1n1c(=O)c(C(F)F)cc2cnc(NC3CCN(S(C)(=O)=O)CC3)nc21 (centres undefined) + CCn1c(-c2cccnc2C(C)OC)c2c3cc(ccc31)N1CCOC(CC(NC(=O)C(C(C)C)N(C)C(=O)C3(F)CCN(C(=O)C#CC(C)(C)N(C)C)CC3)C(=O)N3CCCC(N3)C(=O)OCC(C)(C)C2)C1,IC50,second compound 0.000949 µM,1580 nM
same,IC50,second compound 0.003 µM,1740 nM
same,IC50,second compound 0.00949 µM,2480 nM
same,IC50,second compound 0.03 µM,2150 nM
same,IC50,second compound 0.0949 µM,734 nM
same,IC50,second compound 0.3 µM,1650 nM
same,"viability, T/C",[1],89.3%
same,"viability, T/C",[2],65.9%
same,"viability, T/C",[3],61.5%
same,"viability, T/C",[4],55.9%
same,"viability, T/C",[5],48%
same,"viability, T/C",[6],4.71%
same,"viability, T/C",[7],92.6%
same,"viability, T/C",[8],66.7%
same,"viability, T/C",[9],59.9%
same,"viability, T/C",[10],61.9%
same,"viability, T/C",[11],47.5%
same,"viability, T/C",[12],5.57%
same,"viability, T/C",[13],87.1%
same,"viability, T/C",[14],73.3%
same,"viability, T/C",[15],64%
same,"viability, T/C",[16],65.4%
same,"viability, T/C",[17],50.4%
same,"viability, T/C",[18],4.99%
same,"viability, T/C",[19],79.3%
same,"viability, T/C",[20],70.6%
same,"viability, T/C",[21],64.6%
same,"viability, T/C",[22],55%
same,"viability, T/C",[23],51.5%
same,"viability, T/C",[24],5.14%
same,"viability, T/C",[25],86.3%
same,"viability, T/C",[26],72.7%
same,"viability, T/C",[27],53.8%
same,"viability, T/C",[28],53%
same,"viability, T/C",[29],49.9%
same,"viability, T/C",[30],3.75%
same,"viability, T/C",[31],68%
same,"viability, T/C",[32],64.2%
same,"viability, T/C",[33],54.3%
same,"viability, T/C",[34],54.1%
same,"viability, T/C",[35],45.4%
same,"viability, T/C",[36],3.4%
CCC(CC)c1cc(NC2CCC(N)C2)n2nccc2n1 (centres undefined) + CCn1c(-c2cccnc2C(C)OC)c2c3cc(ccc31)N1CCOC(CC(NC(=O)C(C(C)C)N(C)C(=O)C3(F)CCN(C(=O)C#CC(C)(C)N(C)C)CC3)C(=O)N3CCCC(N3)C(=O)OCC(C)(C)C2)C1,IC50,second compound 0.000949 µM,1430 nM
same,IC50,second compound 0.003 µM,1490 nM
same,IC50,second compound 0.00949 µM,1480 nM
same,IC50,second compound 0.03 µM,1380 nM
same,IC50,second compound 0.0949 µM,1340 nM
same,IC50,second compound 0.3 µM,1040 nM
same,"viability, T/C",[1],106%
same,"viability, T/C",[2],103%
same,"viability, T/C",[3],101%
same,"viability, T/C",[4],72%
same,"viability, T/C",[5],0.76%
same,"viability, T/C",[6],0.94%
same,"viability, T/C",[7],104%
same,"viability, T/C",[8],104%
same,"viability, T/C",[9],115%
same,"viability, T/C",[10],76.4%
same,"viability, T/C",[11],0.77%
same,"viability, T/C",[12],0.9%
same,"viability, T/C",[13],112%
same,"viability, T/C",[14],105%
same,"viability, T/C",[15],101%
same,"viability, T/C",[16],74.9%
same,"viability, T/C",[17],0.96%
same,"viability, T/C",[18],0.75%
same,"viability, T/C",[19],108%
same,"viability, T/C",[20],109%
same,"viability, T/C",[21],115%
same,"viability, T/C",[22],68.9%
same,"viability, T/C",[23],0.82%
same,"viability, T/C",[24],1.41%
same,"viability, T/C",[25],92.9%
same,"viability, T/C",[26],109%
same,"viability, T/C",[27],94.7%
same,"viability, T/C",[28],66.9%
same,"viability, T/C",[29],0.68%
same,"viability, T/C",[30],0.5%
same,"viability, T/C",[31],78.5%
same,"viability, T/C",[32],88.7%
same,"viability, T/C",[33],96.4%
same,"viability, T/C",[34],51.9%
same,"viability, T/C",[35],0.87%
same,"viability, T/C",[36],1.78%
